From patent publication US11274268B2, “Detergent compositions for removing heavy metals and formaldehyde” (FNG RESEARCH CO., LTD., priority 2017, dated 2022)

How the values were obtained:
[1] = system: human skin; test: Skin irritation test of active ingredient (patch method, CTFA guidelines); format: in vivo; conditions: for Test result (number of subject) (+) / Test result (number of subject) (−) / Test result (number of subject) (++) / Test result (number of subject) (±): 20 subjects, 24 hours patch; for Test result (number of subject) (+): apparent reddening; for Test result (number of subject) (−): no erythema or symptoms; for Test result (number of subject) (++): reddened and swollen; for Test result (number of subject) (±): slightly reddish; for Degree of irritation: Equation 1
Protocol: A total of 20 people (10 men and 10 women in their 20s and 30s) were tested for skin irritation using the patch method according to the guidelines of CTFA (The Cosmetic, Toiletry & Fragrance Association, Inc. Washington, D.C.).
A filter paper disk was placed in an 8 mm diameter, 10 panels of pin chamber.
After 24 hours, the pin chamber was removed, and skin conditions were visually observed. The degree and grade for skin irritation were calculated according to the following Equation 1, and the results are shown in Table 3 below.
[Criteria for Skin Irritation]
(−): No erythema or particularly no symptoms; (±): slightly reddish than the periphery; (+): Apparent reddening than periphery; (++): More reddened and swollen than periphery.
[Grade for Skin Irritation]
Degree of irritation 0-0.1: Grade I (unstimulated);
Degree of irritation 0.11-0.3: Grade II (weakly stimulated);
Degree of irritation 0.31-0.5: Grade III (moderately stimulated);
Degree of irritation 0.51 or more: Grade IV (strongly stimulated)

[2] = Formaldehyde removing ability test (GC); conditions: 2.0% formaldehyde solution, 3 molar equivalents, room temperature

Structure (SMILES)	Grade ([1]; content 0.1%)	Test result (number of subject) (+) ([1]; content 0.1%)	Test result (number of subject) (−) ([1]; content 0.1%)	Test result (number of subject) (++) ([1]; content 0.1%)	Test result (number of subject) (±) ([1]; content 0.1%)	Degree of irritation ([1]; content 0.1%)	Grade ([1]; content 0.5%)	Test result (number of subject) (+) ([1]; content 0.5%)	Test result (number of subject) (−) ([1]; content 0.5%)	Test result (number of subject) (++) ([1]; content 0.5%)	Test result (number of subject) (±) ([1]; content 0.5%)	Degree of irritation ([1]; content 0.5%)	Grade ([1]; content 1.0%)	Test result (number of subject) (+) ([1]; content 1.0%)	Test result (number of subject) (−) ([1]; content 1.0%)	Test result (number of subject) (++) ([1]; content 1.0%)	Test result (number of subject) (±) ([1]; content 1.0%)	Degree of irritation ([1]; content 1.0%)	Area (formaldehyde, GC) ([2]; 30 min)	Area (formaldehyde, GC) ([2]; 180 min)	also measured
O=C(O)c1cncc(N2CCCN(c3cncc(C(=O)O)c3)CCN(c3cncc(C(=O)O)c3)CCCN(c3cncc(C(=O)O)c3)CC2)c1 [Embodiment 11, 5,5′,5″,5′″-(1,4,8,11-tetraazacyclotetradecane-1,4,8,11-tetrayl)tetranicotinic Acid]	I (Degree of irritation 0-0.1: Grade I (unstimulated))	0	20	0	0	0	I (Degree of irritation 0-0.1: Grade I (unstimulated))	0	20	0	0	0	I (Degree of irritation 0-0.1: Grade I (unstimulated))	0	18	0	2	0.10	0.174 mAU * min	0 mAU * min	Area (formaldehyde, GC) ([2]; Initial): 0.305 mAU * min
NCCNCCNCCN [Trientine, Triethylenetetramine, reference compound]	I (Degree of irritation 0-0.1: Grade I (unstimulated))	0	20	0	0	0	I (Degree of irritation 0-0.1: Grade I (unstimulated))	0	19	0	1	0.05	II (Degree of irritation 0.11-0.3: Grade II (weakly stimulated))	0	17	0	3	0.15	0.168 mAU * min	0 mAU * min	Area (formaldehyde, GC) ([2]; Initial): 0.305 mAU * min
O=C(O)c1ccc(N2CCCN(c3ccc(C(=O)O)o3)CCN(c3ccc(C(=O)O)o3)CCCN(c3ccc(C(=O)O)o3)CC2)o1 [Embodiment 12, 5,5′,5″,5′″-(1,4,8,11-tetraazacyclotetradecane-1,4,8,1-tetrayl)tetrakis(furan-2-carboxylic Acid)]	I (Degree of irritation 0-0.1: Grade I (unstimulated))	0	20	0	0	0	I (Degree of irritation 0-0.1: Grade I (unstimulated))	0	20	0	0	0	I (Degree of irritation 0-0.1: Grade I (unstimulated))	0	19	0	1	0.05	0.170 mAU * min	0 mAU * min	Area (formaldehyde, GC) ([2]; Initial): 0.305 mAU * min
O=C(O)c1ccc(N(CCN(CCN(c2ccc(C(=O)O)o2)c2ccc(C(=O)O)o2)c2ccc(C(=O)O)o2)CCN(c2ccc(C(=O)O)o2)c2ccc(C(=O)O)o2)o1 [Embodiment 4, 5,5′,5″,5′″-(((ethane-1,2-diylbis((5-carboxyfuran-2-yl)azanediyl))bis(ethane-2,1-diyl))bis(azanetriyl))tetrakis(furan-2-carboxylic Acid)]	I (Degree of irritation 0-0.1: Grade I (unstimulated))	0	20	0	0	0	I (Degree of irritation 0-0.1: Grade I (unstimulated))	0	20	0	0	0	I (Degree of irritation 0-0.1: Grade I (unstimulated))	0	19	0	1	0.05	0.173 mAU * min	0 mAU * min	Area (formaldehyde, GC) ([2]; Initial): 0.305 mAU * min
O=C(O)c1ccc(N2CCN(c3ccc(C(=O)O)cc3)CCN(c3ccc(C(=O)O)cc3)CCN(c3ccc(C(=O)O)cc3)CC2)cc1 [Embodiment 6, 4,4′,4″,4′″-(1,4,7,10-tetraazacyclododecane-1,4,7,10-tetrayl)tetrabenzoic Acid]	I (Degree of irritation 0-0.1: Grade I (unstimulated))	0	20	0	0	0	I (Degree of irritation 0-0.1: Grade I (unstimulated))	0	20	0	0	0	I (Degree of irritation 0-0.1: Grade I (unstimulated))	0	19	0	1	0.05	0.183 mAU * min	0 mAU * min	Area (formaldehyde, GC) ([2]; Initial): 0.305 mAU * min
O=C(O)CN1CCN(CC(=O)O)CCN(CC(=O)O)CCN(CC(=O)O)CC1 [Embodiment 5, 2,2′,2″,2′″-(1,4,7,10-tetraazacyclododecane-1,4,7,10-tetrayl)tetraacetic Acid]	I (Degree of irritation 0-0.1: Grade I (unstimulated))	0	20	0	0	0	I (Degree of irritation 0-0.1: Grade I (unstimulated))	0	20	0	0	0	I (Degree of irritation 0-0.1: Grade I (unstimulated))	0	19	0	1	0.05	0.179 mAU * min	0 mAU * min	Area (formaldehyde, GC) ([2]; Initial): 0.305 mAU * min
O=C(O)c1ccc(N(CCN(CCN(c2ccc(C(=O)O)cc2)c2ccc(C(=O)O)cc2)c2ccc(C(=O)O)cc2)CCN(c2ccc(C(=O)O)cc2)c2ccc(C(=O)O)cc2)cc1 [Embodiment 2, 4,4′,4″,4′″-(((ethane-1,2-diylbis((4-carboxyphenyl)azanediyl))bis(ethane-2,1-diyl))bis(azanetriyl))tetrabenzoic Acid]	I (Degree of irritation 0-0.1: Grade I (unstimulated))	0	20	0	0	0	I (Degree of irritation 0-0.1: Grade I (unstimulated))	0	20	0	0	0	I (Degree of irritation 0-0.1: Grade I (unstimulated))	0	19	0	1	0.05	0.168 mAU * min	0 mAU * min	Area (formaldehyde, GC) ([2]; Initial): 0.305 mAU * min
